In patent US8754115B2, “Fungicidal pyrazoles” (E I du Pont de Nemours and Company, priority 2010, dated 2014):
Marks after values point to notes of the source that are not given here.

Assays:
Format in all cases: in vivo
[1] = system: Botrytis cinerea; test: Test A: preventive spray on tomato seedlings, visual disease rating (tomato Botrytis)
Summary of the method: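 Preventive test: Botrytis cinerea spores applied one day after run-off spraying at 200 ppm (≈800 g/ha), or 40 ppm where asterisked. Incubation 48 h at 20 °C in saturated air, then 3 days at 24 °C; disease scored visually from 0 (no control) to 100 (complete control) versus untreated.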

[2] = system: Alternaria solani; test: Test B: preventive spray on tomato seedlings, visual disease rating (tomato early blight)
Text: (§1) General protocol for preparing test suspensions for Tests A-F: the test compounds were first dissolved in acetone in an amount equal to 3% of the final volume and then suspended at the desired concentration (in ppm) in acetone and purified water (50/50 mix by volume) containing 250 ppm of the surfactant Trem® 014 (polyhydric alcohol esters). The resulting test suspensions were then used in Tests A-F. Spraying a 200 ppm test suspension to the point of run-off on the test plants was the equivalent of a rate of 800 g/ha. Unless otherwise indicated, the rating values indicate a 200 ppm test suspension was used. (An asterisk “*” next to the rating value indicates a 40 ppm test suspension was used.)
(§2) The test suspension was sprayed to the point of run-off on tomato seedlings. The following day the seedlings were inoculated with a spore suspension of Alternaria solani (the causal agent of tomato early blight) and incubated in a saturated atmosphere at 27° C. for 48 h, and then moved to a growth chamber at 20° C. for 5 days, after which time visual disease ratings were made.
(§3) Results for Tests A-F are given in Table A. In the Table, a rating of 100 indicates 100% disease control and a rating of 0 indicates no disease control (relative to the controls). A dash (-) indicates no test results. An asterisk “*” next to the rating value indicates a 40 ppm test suspension was used.

[3] = system: Septoria nodorum; test: Test C: preventive spray on wheat seedlings, visual disease rating (Septoria glume blotch)
Text: as §1
as §2, with “wheat” for “tomato”, “Septoria nodorum” for “Alternaria solani”, “Septoria glume blotch)” for “tomato early blight)”, “24°” for “27°”, “6” for “5”
as §3

[4] = system: Septoria tritici; test: Test D: preventive spray on wheat seedlings, visual disease rating (wheat leaf blotch)
Summary of the method: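 Protection was scored visually on a 0–100% disease-control scale versus controls, 19 days after plants were moved to 20 °C following 48 h of 24 °C saturated humidity. Spore inoculation with S. tritici took place one day after a preventive run-off spray, usually at 200 ppm (800 g/ha) and at 40 ppm where asterisked.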

[5] = system: Puccinia recondite f. sp. tritici; test: Test E1: curative spray on wheat seedlings after inoculation, visual disease rating (wheat leaf rust)
Text: as §1
Wheat seedlings were inoculated with a spore suspension of Puccinia recondite f. sp. tritici (the causal agent of wheat leaf rust) and incubated in a saturated atmosphere at 20° C. for 24 h, and then moved to a growth chamber at 20° C. for 2 days. After 2 days, the test suspension was sprayed to the point of run-off on the wheat seedlings, and then the seedlings were moved back to the growth chamber at 20° C. for 6 days. Upon removal, visual disease ratings were made.
as §3

[6] = system: Puccinia recondite f. sp. tritici; test: Test E2: preventive spray on wheat seedlings, visual disease rating (wheat leaf rust)
Summary of the method: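 Wheat seedlings were inoculated with leaf rust spores one day after a run-off spray of compound at 200 ppm (asterisk: 40 ppm) in 50/50 acetone/water with 250 ppm Trem 014. Incubation: 24 h saturated humidity, 20 °C; then 7 days growth chamber, 20 °C. Disease control scored visually, 0–100% relative to controls.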

[7] = system: Blumeria graminis f. sp. tritici; test: Test F: preventive spray on wheat seedlings, visual disease rating (wheat powdery mildew)
Summary of the method: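 Visual ratings (0–100% control relative to controls) taken 8 days after spore-dust inoculation at 20° C. Inoculation followed one day after a protective run-off spray of 200 ppm suspension, equal to 800 g/ha, or 40 ppm where flagged, made in acetone/water with 250 ppm surfactant.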

[8] = no asterisk: standard test suspension, not 40 ppm, 100 = 100% disease control, 0 = none
[9] = no asterisk: standard test suspension, not 40 ppm
[10] = asterisk: 40 ppm test suspension

SMILES	Test A rating (% disease control) [1, 8] [%]	Test B rating (% disease control) [2, 9] [%]	Test C rating (% disease control) [3, 9] [%]	Test D rating (% disease control) [4, 9] [%]	Test E1 rating (% disease control) [5, 9] [%]	Test E2 rating (% disease control) [6, 9] [%]	Test F rating (% disease control) [7, 9] [%]	Test A rating (% disease control) [1, 10]	Test B rating (% disease control) [2, 10]	Test C rating (% disease control) [3, 10]	Test D rating (% disease control) [4, 10]	Test E1 rating (% disease control) [5, 10]	Test E2 rating (% disease control) [6, 10]	Test F rating (% disease control) [7, 10]
Cc1nn(C)c(-c2c(F)cccc2F)c1C(F)c1ccc(F)cc1Cl (stereo not drawn) [Compound 54]	100	100	99	100	100	99	99	–	–	–	–	–	–	–
COC(c1ccc(F)cc1Cl)c1c(C)nn(C)c1-c1c(F)cccc1Cl (stereo not drawn) [Compound 67]	57	9	0	100	28	90	100	–	–	–	–	–	–	–
Cc1nn(C)c(-c2c(F)cccc2F)c1C(Cl)c1ccc(F)cc1Cl (stereo not drawn) [Compound 84]	–	–	–	–	–	–	–	96* %	100* %	99* %	100* %	41* %	100* %	100* %
Cc1nn(C)c(-c2ccc(F)cc2F)c1Oc1ccc(F)cc1F [compound 13]	100	0	0	0	66	0	72	–	–	–	–	–	–	–
Cc1nn(C)c(-c2c(F)cccc2F)c1C(O)c1c(F)cc(F)cc1F (stereo not drawn) [compound 15]	100	100	86	100	68	100	100	–	–	–	–	–	–	–
COc1cc(F)c(C(O)c2c(C)nn(C)c2-c2c(F)cccc2F)c(F)c1 (stereo not drawn) [compound 16]	100	99	0	100	54	100	93	–	–	–	–	–	–	–
Cc1nn(C)c(-c2ccc(F)cc2Cl)c1C(O)c1ccc(F)cc1F (stereo not drawn) [compound 17]	100	94	60	100	83	100	100	–	–	–	–	–	–	–
Cc1nn(C)c(-c2ccc(F)cc2Cl)c1C(O)c1ccc(F)cc1Cl (stereo not drawn) [compound 18]	100	83	0	100	100	100	100	–	–	–	–	–	–	–
Cc1nn(C)c(-c2ccc(F)cc2Cl)c1C(O)c1c(F)cc(F)cc1F (stereo not drawn) [compound 19]	99	100	100	100	100	100	100	–	–	–	–	–	–	–
COc1cc(F)c(C(O)c2c(C)nn(C)c2-c2ccc(F)cc2Cl)c(F)c1 (stereo not drawn) [compound 20]	–	–	–	–	–	–	–	97* %	97* %	0* %	100* %	99* %	99* %	92* %
Cc1nn(C)c(-c2c(F)cccc2F)c1C(O)c1ccc(F)cc1Br (stereo not drawn) [compound 21]	99	100	100	100	100	100	98	–	–	–	–	–	–	–
Cc1nn(C)c(-c2c(F)cccc2F)c1C(O)c1ccc(C#N)cc1F (stereo not drawn) [compound 22]	88	84	0	100	17	88	0	–	–	–	–	–	–	–
Cc1nn(C)c(-c2ccc(F)cc2Cl)c1C(O)c1ccc(F)cc1Br (stereo not drawn) [compound 23]	100	67	87	100	98	100	84	–	–	–	–	–	–	–
Cc1nn(C)c(-c2c(F)cccc2F)c1C(=O)c1ccc(F)cc1F [compound 24]	9	0	0	0	9	79	96	–	–	–	–	–	–	–
Cc1nn(C)c(-c2ccc(F)cc2Cl)c1C(O)c1ccc(C#N)cc1F (stereo not drawn) [compound 25]	100	99	89	100	9	100	96	–	–	–	–	–	–	–
Cc1nn(C)c(-c2c(F)cccc2Cl)c1C(=O)c1ccc(Cl)cc1Cl [compound 27]	0	0	0	0	0	0	81	–	–	–	–	–	–	–
Cc1nn(C)c(-c2c(F)cccc2Cl)c1C(=O)c1ccc(F)cc1F [compound 28]	56	0	0	0	0	8	79	–	–	–	–	–	–	–
COc1ccc(-c2c(Oc3ccc(F)cc3Cl)c(C)nn2C)c(Cl)c1 [compound 31]	100	0	0	100	0	92	96	–	–	–	–	–	–	–
Cc1nn(C)c(-c2c(F)cccc2Cl)c1C(O)c1ccc(F)cc1F (stereo not drawn) [compound 33]	100	100	100	100	99	100	100	–	–	–	–	–	–	–
Cc1nn(C)c(-c2c(F)cccc2Cl)c1C(O)c1c(F)cc(F)cc1F (stereo not drawn) [compound 34]	100	99	100	100	84	99	100	–	–	–	–	–	–	–
Cc1nn(C)c(-c2ccc(F)cc2F)c1Oc1ccc(C#N)cc1Cl [compound 35]	98	0	0	100	9	73	0	–	–	–	–	–	–	–
